Measured values as given in patent publication US20230399289A1, “ITACONIC ACID DERIVATIVES” (Sitryx Therapeutics Limited, priority 2020, published 2023).

Columns and labels:
[1] = test system: IL-1β cytokine output from THP-1 cells; test: THP-1 AlphaLISA IL-1β cytokine assay; format: cell-based; details: Homo sapiens, THP-1, differentiated THP-1 cells
Description: (§1) Measuring Inhibitory Effects on IL-1β and IL-6 Cytokine Output from THP-1s
(§2) The cytokine inhibition profiles of compounds of formula (I) were determined in a differentiated THP-1 cell assay. All assays were performed in RPMI-1640 growth medium (Gibco), supplemented with 10% fetal bovine serum (FBS; Gibco), 1% penicillin-streptomycin and 1% sodium pyruvate unless specified otherwise. The IL-1β and IL-6 cytokine inhibition assays were each run in a background of differentiated THP-1 cells as described below. All reagents described were from Sigma-Aldrich unless specified otherwise. Compounds were prepared as 10 mM DMSO stocks.
(§3) THP-1 cells were expanded as a suspension up to 80% confluence in appropriate growth medium. Cells were harvested, suspended, and treated with an appropriate concentration of phorbol 12-myristate 13-acetate (PMA) over a 72 hr period (37° C./5% CO2).
(§4) Following 72 hrs of THP-1 cell incubation, cellular medium was removed and replaced with fresh growth media containing 1% of FBS. Working concentrations of compounds were prepared separately in 10% FBS treated growth medium and pre-incubated with the cells for 30 minutes (37° C./5% CO2). Following the 30 minute compound pre-incubation, THP-1s were treated with an appropriate concentration of LPS and the THP-1s were subsequently incubated for a 24 hr period (37° C./5% CO2). An appropriate final concentration of Nigericin was then dispensed into the THP-1 plates and incubated for 1 hour (37° C./5% CO2) before THP-1 supernatants were harvested and collected in separate polypropylene 96-well holding plates.
(§5) Reagents from each of the […] and IL-6 commercial kits (Perkin Elmer) were prepared and run according to the manufacturer's instructions. Subsequently, fluorescence signal detection in a microplate reader was measured (EnVision® Multilabel Reader, Perkin Elmer).
(§6) Percentage inhibition was calculated per cytokine by normalising the sample data to the high and low controls used within each plate (+/−LPS respectively). Percentage inhibition was then plotted against compound concentration and the 50% inhibitory concentration (IC50) was determined from the resultant concentration-response curve.

[2] = test system: IL-6 cytokine output from THP-1 cells; test: THP-1 AlphaLISA IL-6 cytokine assay; format: cell-based; details: Homo sapiens, THP-1, differentiated THP-1 cells
Description: as §1, §2, §3, §4, §5, §6

[3] = test system: NRF2 (nuclear factor erythroid 2-related factor 2); test: NRF2 +/−GSH activation assay (DiscoverX PathHunter NRF2 translocation kit, U2OS cells); format: cell-based; details: Homo sapiens; for Emax: U2OS, normalised to dimethyl fumarate high control; for EC50: U2OS PathHunter cells, 6 hours
[4] = Hepatocyte stability assay, human; format: in vitro ADME; details: cryopreserved hepatocytes, 10 μM compound, 0.5×10^6 cells/mL, 60 min, read-out: T½
Source text: (§7) Defrosted cryo-preserved hepatocytes (viability>70%) may be used to determine the metabolic stability of a compound via calculation of intrinsic clearance (Clint; a measure of the removal of a compound from the liver in the absence of blood flow and cell binding). Clearance data are particularly important for in vitro work as they can be used in combination with in vivo data to predict the half-life and oral bioavailability of a drug.
(§8) The metabolic stability in hepatocytes assay involves a time-dependent reaction using both positive and negative controls. The cells were pre-incubated at 37° C. and spiked with test compound (and positive control); samples were taken at pre-determined time intervals and analysed to monitor the change in concentration of the initial drug compound over 60 minutes. A buffer incubation reaction (with no hepatocytes present) acted as a negative control and two cocktail solutions, containing compounds with known high and low clearance values (verapamil/7-hydroxycoumarin and propranolol/diltiazem), acted as positive controls. • 1. The assay was run with a cell concentration of 0.5×10^6 cells/mL in Leibovitz buffer. • 2. All compounds and controls were run in duplicate. • 3. Compound concentration was 10 μM. • 4. All compounds and controls were incubated with both cells and buffer to show turnover was due to hepatic metabolism. • 5. All wells on the incubation plate had 326.7 μL of either cells or buffer added. • 6. Prior to assay, cell and buffer-only incubation plates were preincubated for 10 mins at 37° C. • 7. The assay was initiated by adding compounds, 3.3 μL of 1 mM in 10% DMSO-90% Buffer; final DMSO concentration is 0.1%. • 8. Samples were taken at regular timepoints (0, 5, 10, 20, 40, 60 min) until 60 mins. • 9. Sample volume was 40 μL and was added to 160 μL of crash solvent (acetonitrile with internal standard) and stored on ice. • 10. At the end of the assay, the crash plates were centrifuged at 3500 rpm for 20 mins at 4° C. • 11. 80 μL of clear supernatant was removed and mixed with 80 μL of deionised water before being analysed by LC-MS/MS.
(§9) Raw LC-MS/MS data was exported to, and analysed in, Microsoft Excel for determination of intrinsic clearance. The percentage remaining of a compound was monitored using the peak area of the initial concentration as 100%. Intrinsic clearance and half-life values were calculated using a graph of the natural log of percentage remaining versus the time of reaction in minutes. Half-life (min) and intrinsic clearance (Clint in μL min^−1 10^−6 cells) values were calculated using the gradient of the graph (the elimination rate constant, k) and Equations 1 and 2.

hepatocytes [5] = test: Hepatocyte stability assay, human; format: in vitro ADME; details: 10 μM compound, 0.5×10^6 cells/mL, 60 min
Source text: as §7, §8, §9

[6] = Hepatocyte stability assay, mouse; format: in vitro ADME; details: cryopreserved hepatocytes, 10 μM compound, 0.5×10^6 cells/mL, 60 min, read-out: T½
Source text: as §7, §8, §9

hepatocytes [7] = test: Hepatocyte stability assay, mouse; format: in vitro ADME; details: 10 μM compound, 0.5×10^6 cells/mL, 60 min
Source text: as §7, §8, §9

[8] = LPS 24 hr then Nigericin 1 hour
[9] = +GSH, 30 minute compound-GSH pre-incubation

SMILES	IC50 [1, 8] [µM]	IC50 [2, 8] [µM]	Emax ([3]; +GSH) [%]	Emax ([3]; −GSH) [%]	EC50 [3, 9] [µM]	EC50 ([3]; −GSH) [µM]	half-life at 10 μM [4] [min]	CIint (hepatocytes [5]) [μL min^−1 10^−6 cells]	half-life at 10 μM [6] [min]	CIint (hepatocytes [7]) [μL min^−1 10^−6 cells]	IC50 ([1]; from repeated experiments) [µM]	IC50 ([2]; from repeated experiments) [µM]
C=C(CC(=O)OC1(c2cc(Cl)cc(Cl)c2)CCC1)C(=O)OCC(=O)O [Example 1, 2-((4-(1-(3,5-dichlorophenyl)cyclobutoxy)-2-methylene-4-oxobutanoyl)oxy)acetic acid]	9.4	4.6	259	375	11.1	7.7	116	13	24	52	–	–
C=C(CC(=O)OC1(c2ccc(C(F)(F)F)cc2)CCC1)C(=O)OCC(=O)O [Example 2, 2-((2-methylene-4-oxo-4-(1-(4-(trifluoromethyl)phenyl)cyclobutoxy)butanoyl)oxy)acetic acid]	7.7	5.2	167	217	21.6	15.4	> 460	<3	38	50	9.1	7.7
C=C(CC(=O)OC1(c2ccc(Br)cc2)CCC1)C(=O)OCC(=O)O [Example 3, 2-((4-(1-(4-bromophenyl)cyclobutoxy)-2-methylene-4-oxobutanoyl)oxy)acetic acid]	12.1	11.3	–	–	–	–	174	9	20	95	–	–
C=C(CC(=O)OC1(c2ccc(Cl)cc2)CCC1)C(=O)OCC(=O)O [Example 4, 2-((4-(1-(4-chlorophenyl)cyclobutoxy)-2-methylene-4-oxobutanoyl)oxy)acetic acid]	12.4	6.9	171	192	28.9	19	189	8	28	69	–	–
C=C(CC(=O)OC1(c2cc(Cl)ccc2Cl)CCC1)C(=O)OCC(=O)O [Example 5, 2-((4-(1-(2,5-dichlorophenyl)cyclobutoxy)-2-methylene-4-oxobutanoyl)oxy)acetic acid]	10.6	5.3	185	208	25.4	16	172	9	24	80	–	–
C=C(CC(=O)OC1(c2ccc(OC(F)(F)F)cc2Cl)CCC1)C(=O)OCC(=O)O [Example 6, 2-((4-(1-(2-chloro-4-(trifluoromethoxy)phenyl)cyclobutoxy)-2-methylene-4-oxobutanoyl)oxy)acetic acid]	12.7	–	187	219	15.4	11.9	85	18	< 3	>460	–	–
C=C(CC(=O)OC1(c2ccc(OC(F)(F)F)cc2)CCC1)C(=O)OCC(=O)O [Example 9, 2-((2-methylene-4-oxo-4-(1-(4-(trifluoromethoxy)phenyl)cyclobutoxy)butanoyl)oxy)acetic acid]	12.1	–	182	210	7.3	5.1	251	6	29	66	–	–
C=C(CC(=O)OC1(c2ccc(Cl)cc2Cl)CCC1)C(=O)OCC(=O)O [Example 10, 2-((4-(1-(2,4-dichlorophenyl)cyclobutoxy)-2-methylene-4-oxobutanoyl)oxy)acetic acid]	11.3	–	175	236	11.6	8.3	107	14	8	187	–	–
C=C(CC(=O)OC1(c2ccc(C(F)(F)F)cc2Cl)CCC1)C(=O)OCC(=O)O [Example 11, 2-((4-(1-(2-chloro-4-(trifluoromethyl)phenyl)cyclobutoxy)-2-methylene-4-oxobutanoyl)oxy)acetic acid]	9	–	160	214	5.1	3	152	10	15	100	–	–
C=C(CC(=O)OC1(c2ccc(Br)cc2Cl)CCC1)C(=O)OCC(=O)O [Example 12, 2-((4-(1-(4-bromo-2-chlorophenyl)cyclobutoxy)-2-methylene-4-oxobutanoyl)oxy)acetic acid]	8.8	–	158	217	7.9	5.2	64	23	6	239	–	–
C=C(CC(=O)OC1(c2ccc(C)c(Cl)c2)CCC1)C(=O)OCC(=O)O [Example 20, 2-((4-(1-(3-chloro-4-methylphenyl)cyclobutoxy)-2-methylene-4-oxobutanoyl)oxy)acetic acid]	8.7	–	–	–	–	–	84	15	26	77	–	–
C=C(CC(=O)OC1(c2ccc(C(F)(F)F)cc2)CC1)C(=O)OCC(=O)O [Example 30, 2-((2-methylene-4-oxo-4-(1-(4-(trifluoromethyl)phenyl)cyclopropoxy)butanoyl)oxy)acetic acid]	16.7	> 100	–	–	–	–	86	16	39	33	–	–
C=C(CC(=O)OC1(c2ccc(C(F)(F)F)cc2)COC1)C(=O)OCCC(=O)O [Example 32, 3-((2-methylene-4-oxo-4-((3-(4-(trifluoromethyl)phenyl)oxetan-3-yl)oxy)butanoyl)oxy)propanoic acid]	7.4	11.9	–	–	–	–	407	4	41	36	–	–
